Experimental data taken from ChEMBL document CHEMBL5042525, “Activation of E6AP/UBE3A-Mediated Protein Ubiquitination and Degradation Pathways by a Cyclic γ-AA Peptide” (J Med Chem, 2022).
pKd: −log10 of the molar value. Calls of active or inactive are those of the source. The calls are words filed in the database; no cut-off is given here.

How the values were obtained:
Homo sapiens [1] = species: Homo sapiens; experiment: Activation of wild type N-terminal Flag-tagged E6AP HECT domain (unknown origin) self-ubiquitination assessed as increase in formation of polyubiquitinated HECT in presence of wild type HA-tagged UB at 10 to 100 uM preincubated for 30 mins followed by UB addition incubated for 2 hrs by SDS PAGE based Western blot analysis; conditions: dose 10-100 µM, time 150.0 min
Homo sapiens [2] = species: Homo sapiens; experiment: Activation of full length E6AP (unknown origin) self-ubiquitination at 100 uM preincubated for 30 mins followed by UB addition incubated for 2 hrs by SDS PAGE based Western blot analysis
Homo sapiens [3] = species: Homo sapiens; experiment: Activation of wild type N-terminal Flag-tagged E6AP (unknown origin) mediated UbxD8 substrate ubiquitination in presence of Uba1/Ubch7 at 10 to 100 uM preincubated for 30 mins followed by UB addition incubated for 2 hrs by SDS PAGE based Western blot analysis; conditions: dose 10-100 µM, time 2.5 hrs
[4] = Binding affinity to recombinant E6AP HECT domain (unknown origin) expressed in BL21 cells by fluorescence polarization assay; parameters: species or system Homo sapiens; conditions: for pKd: read-out: Kd
Homo sapiens [5] = species: Homo sapiens; experiment: Activation of wild type N-terminal Flag-tagged E6AP (unknown origin) mediated ubiquitination of p53 substrate at 10 to 100 uM in presence of […] E6 and Uba1/Ubch7 preincubated for 30 min followed by UB addition incubated for 2 hrs by SDS PAGE based Western blot analysis; conditions: dose 10-100 µM, time 150.0 min
HEK293T [6] = experiment: Activation of E6AP (unknown origin) mediated HHR23A substrate ubiquitination in HEK293T cells at 25 to 50 uM preincubated for 14 hrs followed by addition of MG132 incubated for 12 hrs by SDS PAGE based Western blot analysis; assay type: cell-based; conditions: Homo sapiens, filed as activator, dose 25-50 µM, time 26.0 hrs
Homo sapiens [7] = species: Homo sapiens; experiment: Activation of wild type N-terminal Flag-tagged E6AP HECT domain (unknown origin) self-ubiquitination in presence of wild type HA-tagged UB at 5 uM preincubated for 30 mins followed by UB addition incubated for 2 hrs by SDS PAGE based Western blot analysis; conditions: filed as activator, time 150.0 min
[8] = Stability of the compound in ammonium bicarbonate buffer at pH 7.8 assessed as pronase (unknown origin)-mediated drug degradation for 24 hrs by HPLC-MS analysis; assay type: ADME; conditions: human, pH 7.8, 24 h
Homo sapiens [9] = species: Homo sapiens; experiment: Activation of wild type N-terminal Flag-tagged E6AP (unknown origin) mediated HHR23A substrate ubiquitination in presence of Uba1/Ubch7 preincubated for 30 mins followed by UB addition incubated for 2 hrs by SDS PAGE based Western blot analysis; conditions: filed as activator, dose 1-100 µM, time 150.0 min
Homo sapiens [10] = species: Homo sapiens; experiment: Activation of E6AP (unknown origin) self-ubiquination in presence of wild type HA-tagged UB at 5 uM preincubated for 30 mins followed by UB addition incubated for 2 hrs by SDS PAGE based Western blot analysis; conditions: filed as activator, time 150.0 min
Homo sapiens [11] = species: Homo sapiens; experiment: Activation of E6AP (unknown origin) self-ubiquination in presence of UbcH7 at 5 uM preincubated for 30 mins followed by UB addition incubated for 2 hrs by SDS PAGE based Western blot analysis; conditions: filed as activator, time 2.5 hrs
HEK293T [12] = experiment: Activation of E6AP mediated UbxD8 degradation in HEK293T cells at 50 uM preincubated for 14 hrs followed by CHX addition by cycloheximide chase assay; assay type: cell-based; conditions: Homo sapiens, filed as activator
Homo sapiens [13] = species: Homo sapiens; experiment: Activation of wild type N-terminal Flag-tagged E6AP (unknown origin) mediated UbxD8 substrate ubiquitination in presence of Uba1/Ubch7 preincubated for 30 mins followed by UB addition incubated for 2 hrs by SDS PAGE based Western blot analysis; conditions: filed as activator, time 2.5 hrs
[14] = Stability of the compound in human serum for 24 hrs by HPLC-MS analysis; assay type: ADME, cell-free
Homo sapiens [15] = species: Homo sapiens; experiment: Activation of E6AP (unknown origin) self-ubiquination in presence of Uba1 at 5 uM preincubated for 30 mins followed by UB addition incubated for 2 hrs by SDS PAGE based Western blot analysis; conditions: filed as activator, time 2.5 hrs
Homo sapiens [16] = species: Homo sapiens; experiment: Activation of wild type N-terminal Flag-tagged E6AP (unknown origin) mediated beta-catenin substrate ubiquitination in presence of Uba1/Ubch7 preincubated for 30 mins followed by UB addition incubated for 2 hrs by SDS PAGE based Western blot analysis; conditions: filed as activator, dose 1-100 µM, time 150.0 min
HEK293T [17] = experiment: Activation of E6AP (unknown origin) in HEK293T cells assessed as increase in ubiquitination level of UbxD8 substrate at 25 to 50 uM preincubated for 14 hrs followed by addition of MG132 incubated for 12 hrs by SDS PAGE based Western blot analysis; assay type: cell-based; conditions: Homo sapiens, filed as activator, dose 25-50 µM, time 26.0 hrs
Homo sapiens [18] = species: Homo sapiens; experiment: Activation of wild type N-terminal Flag-tagged E6AP HECT domain (unknown origin) self-ubiquitination in presence of Uba1 at 5 uM preincubated for 30 mins followed by UB addition incubated for 2 hrs by SDS PAGE based Western blot analysis; conditions: filed as activator, time 2.5 hrs
HEK293T [19] = experiment: Activation of E6AP mediated HHR23A degradation in HEK293T cells at 50 uM preincubated for 14 hrs followed by CHX addition by cycloheximide chase assay; assay type: cell-based; conditions: Homo sapiens, filed as activator
Homo sapiens [20] = species: Homo sapiens; experiment: Activation of wild type N-terminal Flag-tagged E6AP HECT domain (unknown origin) self-ubiquitination in presence of UbcH7 at 5 uM preincubated for 30 mins followed by UB addition incubated for 2 hrs by SDS PAGE based Western blot analysis; conditions: filed as activator, time 2.5 hrs
HEK293T [21] = experiment: Activation of E6AP mediated HHR23A degradation in HEK293T cells at 1 to 5 uM preincubated for 14 hrs followed by CHX addition by cycloheximide chase assay; assay type: cell-based; conditions: Homo sapiens, filed as activator, dose 1-5 µM

SMILES	Activity (Homo sapiens [1])	Activity (Homo sapiens [2])	Activity (Homo sapiens [3])	pKd [4]	Activity (Homo sapiens [5])	further results
C[C@H]1CN(C(=O)Cc2ccc3c(c2)OCO3)CC(=O)N[C@@H](Cc2ccccc2)CN(C(=O)Cc2ccc3ccccc3c2)CC(=O)N[C@@H](CCC(=O)O)CN(C(=O)CC2CC2)CC(=O)N[C@@H](Cc2ccccc2)CN(CC(N)=O)C(=O)CCSCc2ccc(cc2)C(=O)N1	inactive	inactive	inactive	6.77	inactive	–
C[C@H]1CN(C(=O)CCC(=O)O)CC(=O)N[C@@H](Cc2ccccc2)CN(CC(N)=O)C(=O)CCSCc2ccc(cc2)C(=O)N[C@@H](C)CN(C(=O)Cc2ccc3c(c2)OCO3)CC(=O)N[C@@H](CCC(=O)O)CN(C(=O)CC2CC2)CC(=O)N1	inactive	inactive	inactive	–	inactive	Kd [4]: Not Active
CC(C)C[C@H]1CN(CC(N)=O)C(=O)CCSCc2ccc(cc2)C(=O)N[C@@H](C)CN(C(=O)Cc2ccc3ccccc3c2)CC(=O)N[C@@H](CC(C)C)CN(C(=O)CCc2ccccc2)CC(=O)N[C@@H](Cc2ccccc2)CN(C(=O)Cc2ccc3c(c2)OCO3)CC(=O)N1	inactive	inactive	inactive	6.73	inactive	–
COc1cc(CC(=O)N2CC(=O)N[C@@H](Cc3ccccc3)CN(C(=O)CC3CC3)CC(=O)N[C@@H](CC(C)C)CN(CC(N)=O)C(=O)CCSCc3ccc(cc3)C(=O)N[C@@H](CCC(=O)O)CN(C(=O)Cc3ccc4c(c3)OCO4)CC(=O)N[C@@H](CC(C)C)C2)cc(OC)c1	inactive	inactive	inactive	6.79	inactive	–
COc1cc(CC(=O)N2CC(=O)N[C@@H](Cc3ccccc3)CN(C(=O)CC3CC3)CC(=O)N[C@@H](CC(C)C)CN(CC(N)=O)C(=O)CCSCc3ccc(cc3)C(=O)N[C@@H](CCCCN)CN(C(=O)Cc3ccc4ccccc4c3)CC(=O)N[C@@H](CC(C)C)C2)cc(OC)c1	–	–	–	6.66	inactive	Activity (HEK293T [6]): Active; Activity (Homo sapiens [7]): Active; Stability [8]: Stable; Activity (Homo sapiens [9]): Dose-Dependent Effect; Activity (Homo sapiens [10]): Active; Activity (Homo sapiens [11]): Active; Activity (Homo sapiens [1]; filed as activator): Active; Activity (Homo sapiens [2]; filed as activator): Active; Activity (HEK293T [12]): Active; Activity (Homo sapiens [13]): Dose-Dependent Effect; Stability [14]: Stable; Activity (Homo sapiens [3]; filed as activator): Active; Activity (Homo sapiens [15]): Active; Activity (Homo sapiens [16]): Dose-Dependent Effect; Activity (HEK293T [17]): Active; Activity (Homo sapiens [18]): Active; Activity (HEK293T [19]): Active; Activity (Homo sapiens [20]): Active; Activity (HEK293T [21]): Active
CC(C)C[C@H]1CN(C(=O)Cc2ccc3c(c2)OCO3)CC(=O)N[C@@H](CCC(=O)O)CN(C(=O)CCC2CCCCC2)CC(=O)N[C@@H](C)CN(C(=O)CCC(=O)O)CC(=O)N[C@@H](Cc2ccccc2)CN(CC(N)=O)C(=O)CCSCc2ccc(cc2)C(=O)N1	inactive	inactive	inactive	–	inactive	Kd [4]: Not Active
COc1cc(CC(=O)N2CC(=O)N[C@@H](C)CN(C(=O)Cc3cc(OC)cc(OC)c3)CC(=O)N[C@@H](CC(C)C)CN(CC(N)=O)C(=O)CCSCc3ccc(cc3)C(=O)N[C@@H](Cc3ccccc3)CN(C(=O)Cc3ccc4c(c3)OCO4)CC(=O)N[C@@H](Cc3ccccc3)C2)cc(OC)c1	inactive	inactive	inactive	7.08	inactive	–
CC(C)C[C@H]1CN(CC(N)=O)C(=O)CCSCc2ccc(cc2)C(=O)N[C@@H](Cc2ccccc2)CN(C(=O)Cc2ccc3ccccc3c2)CC(=O)N[C@@H](CC(C)C)CN(C(=O)CCC2CCCCC2)CC(=O)N[C@@H](Cc2ccccc2)CN(C(=O)Cc2ccc3c(c2)OCO3)CC(=O)N1	inactive	inactive	inactive	7.09	inactive	–
